Experimental data from patent US9580413B2, “Substituted pyrrolidines as ROS tyrosine kinase inhibitors” (NIPPON SHINYAKU CO., LTD., priority 2012, dated 2017).
Where a name gives a salt, the structure may show the parent alone.

Assays:
[1] = target: T1, FIG-ROS/BaF3 cell (Homo sapiens, UniProt P08922); assay: Proliferation inhibitory activity test against FIG-ROS/BaF3 cell; assay type: cell-based; settings: 3 days incubation, cell counting kit; read-out: Proliferation inhibitory activity against FIG-ROS/BaF3 cell (IC50)
T1 construct: fused on or other part: Q9HD26 (Golgi-associated PDZ and coiled-coil motif-containing protein)
T1 sequence (P08922 whole entry, stated change not applied, the tested form may be a part): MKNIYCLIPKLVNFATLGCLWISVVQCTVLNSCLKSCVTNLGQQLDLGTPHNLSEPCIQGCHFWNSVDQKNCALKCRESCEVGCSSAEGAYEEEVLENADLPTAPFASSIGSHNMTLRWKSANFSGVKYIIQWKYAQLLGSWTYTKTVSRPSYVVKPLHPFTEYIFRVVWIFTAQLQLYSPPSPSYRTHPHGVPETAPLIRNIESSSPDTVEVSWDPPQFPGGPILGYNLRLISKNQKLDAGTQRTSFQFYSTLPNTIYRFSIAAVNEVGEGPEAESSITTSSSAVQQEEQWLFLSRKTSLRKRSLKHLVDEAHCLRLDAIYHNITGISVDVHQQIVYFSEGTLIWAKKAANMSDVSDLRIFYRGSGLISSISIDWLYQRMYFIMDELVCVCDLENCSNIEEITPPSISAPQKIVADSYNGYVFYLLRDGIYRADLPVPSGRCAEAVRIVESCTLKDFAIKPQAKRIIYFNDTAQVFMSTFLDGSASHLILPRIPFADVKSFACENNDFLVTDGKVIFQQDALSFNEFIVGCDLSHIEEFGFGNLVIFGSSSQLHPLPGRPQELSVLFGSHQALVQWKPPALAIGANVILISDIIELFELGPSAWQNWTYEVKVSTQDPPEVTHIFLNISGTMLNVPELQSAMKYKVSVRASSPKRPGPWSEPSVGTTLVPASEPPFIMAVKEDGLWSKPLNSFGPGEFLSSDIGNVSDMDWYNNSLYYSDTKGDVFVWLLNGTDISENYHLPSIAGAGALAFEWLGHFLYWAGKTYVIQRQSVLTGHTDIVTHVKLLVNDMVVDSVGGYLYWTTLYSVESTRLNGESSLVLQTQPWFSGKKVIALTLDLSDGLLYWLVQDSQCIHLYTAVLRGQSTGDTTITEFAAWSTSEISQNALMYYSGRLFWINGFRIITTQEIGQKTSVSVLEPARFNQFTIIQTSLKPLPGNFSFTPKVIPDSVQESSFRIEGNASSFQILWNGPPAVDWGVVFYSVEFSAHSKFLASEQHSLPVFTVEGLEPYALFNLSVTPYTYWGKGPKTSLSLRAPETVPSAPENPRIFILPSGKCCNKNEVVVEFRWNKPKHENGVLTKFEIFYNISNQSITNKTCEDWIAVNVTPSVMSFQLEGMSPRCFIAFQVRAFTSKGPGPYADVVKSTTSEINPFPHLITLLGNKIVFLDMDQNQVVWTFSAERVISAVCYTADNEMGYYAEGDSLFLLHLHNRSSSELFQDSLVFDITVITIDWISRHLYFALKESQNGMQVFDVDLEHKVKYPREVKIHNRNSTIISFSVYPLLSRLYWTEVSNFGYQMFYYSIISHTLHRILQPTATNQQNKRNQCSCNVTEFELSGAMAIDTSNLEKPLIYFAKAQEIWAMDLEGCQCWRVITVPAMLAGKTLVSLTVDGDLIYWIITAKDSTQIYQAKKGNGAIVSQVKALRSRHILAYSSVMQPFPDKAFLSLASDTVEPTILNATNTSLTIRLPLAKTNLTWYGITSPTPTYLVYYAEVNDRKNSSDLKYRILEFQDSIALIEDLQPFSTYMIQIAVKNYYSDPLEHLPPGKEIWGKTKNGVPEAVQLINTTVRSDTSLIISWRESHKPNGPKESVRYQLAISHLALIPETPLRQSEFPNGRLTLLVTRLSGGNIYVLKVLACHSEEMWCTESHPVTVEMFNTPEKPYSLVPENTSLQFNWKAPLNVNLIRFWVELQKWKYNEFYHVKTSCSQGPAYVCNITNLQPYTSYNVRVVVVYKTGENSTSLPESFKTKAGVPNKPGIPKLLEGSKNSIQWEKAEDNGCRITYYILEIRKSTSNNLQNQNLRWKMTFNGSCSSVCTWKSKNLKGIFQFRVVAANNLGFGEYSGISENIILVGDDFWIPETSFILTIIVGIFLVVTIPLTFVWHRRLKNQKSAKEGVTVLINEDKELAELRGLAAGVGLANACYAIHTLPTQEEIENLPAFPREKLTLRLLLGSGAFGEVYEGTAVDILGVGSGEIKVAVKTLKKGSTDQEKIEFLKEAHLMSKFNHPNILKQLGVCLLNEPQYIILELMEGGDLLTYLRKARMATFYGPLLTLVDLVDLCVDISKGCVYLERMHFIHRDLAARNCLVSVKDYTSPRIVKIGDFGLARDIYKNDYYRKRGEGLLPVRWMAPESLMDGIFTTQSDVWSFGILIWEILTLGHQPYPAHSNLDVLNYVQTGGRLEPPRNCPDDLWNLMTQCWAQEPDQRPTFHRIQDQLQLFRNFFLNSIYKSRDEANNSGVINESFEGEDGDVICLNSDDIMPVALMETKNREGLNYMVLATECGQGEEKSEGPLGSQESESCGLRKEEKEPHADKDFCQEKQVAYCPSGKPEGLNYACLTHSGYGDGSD
Protocol: A BaF3 cell which had been transformed by introducing the FIG-ROS fusion gene (derived from U118MG human glioma cell) (FIG-ROS/BaF3 Cell) was prepared on a culture medium, seeded on a 96-well plate in the number of 1×10^3/100 μL per well, and then allowed to stand in a CO2 incubator (at 37° C. and 5% CO2). As the culture medium, 10% FBS (fetal bovine serum)-incorporated RPMI-1640 was used.
2. Proliferation Inhibitory Activity Test:
A test substance was dissolved in dimethyl sulfoxide (DMSO) to 10 mM and further diluted with DMSO to 100-fold to prepare a 100 μM solution. This was diluted with a 1% DMSO-incorporated medium to concentrations of 10-fold of the concentration to be measured (10,000, 1,000, 100, 10, and 1 nM). Each of the medicine solutions was added at 11 μL per well and mixed. To a control having no medicine added thereto, a 1% DMSO-incorporated medium was added, and incubated in a CO2 incubator (at 37° C. and 5% CO2) for 3 days. After completion of the incubation, the number of live cells was counted using a cell counting kit. First of all, each cell counting kit solution was added at 5 μL per well and mixed, and incubated in a CO2 incubator (at 37° C. and 5% CO2) for 4 hours. An absorbance at 450 nm was measured with a microplate reader (Model 3550, manufactured by BIO-RAD, Benchmark, manufactured by BIO-RAD, or iMARK, manufactured by BIO-RAD) with a reference wavelength of 650 nm.
3. Analysis of Measurement Results:
A non-linear regression analysis was performed for the measured absorbance with an SAS system (SAS Institute Inc.), and a concentration of each of the test substances of inhibiting the cell proliferation at 50% (IC50) was calculated. The proliferation inhibitory activity (IC50, nM) of each of the test substances against the FIG-ROS/BaF3 cell is shown in Table 9.

[2] = target: T2, ROS tyrosine kinase (Homo sapiens, UniProt P08922); assay: ROS tyrosine kinase inhibitory activity test (ELISA); assay type: biochemical, humans; settings: 25 μM ATP substrate solution, 30° C., one hour
T2 construct: purchased Carna Biosciences, Inc
Procedure, shortened: (§1)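 Human recombinant ROS or JAK2 kinase (added as a 0.25 nM solution) reacted for 1 h at 30 °C in 15 mM Tris-Cl pH 7.5, 0.01% Tween-20, 1 mM DTT with compound from DMSO. Substrate phosphotyrosine was detected by HRP anti-phosphotyrosine antibody and TMB at A450, and IC50 came from non-linear regression.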

[3] = target: T3, JAK2 tyrosine kinase (Homo sapiens, UniProt O60674); assay: JAK2 tyrosine kinase inhibitory activity test (ELISA); assay type: biochemical, humans; settings: 25 μM ATP substrate solution, 30° C., one hour
T3 construct: purchased Carna Biosciences, Inc
T3 sequence (O60674 whole entry): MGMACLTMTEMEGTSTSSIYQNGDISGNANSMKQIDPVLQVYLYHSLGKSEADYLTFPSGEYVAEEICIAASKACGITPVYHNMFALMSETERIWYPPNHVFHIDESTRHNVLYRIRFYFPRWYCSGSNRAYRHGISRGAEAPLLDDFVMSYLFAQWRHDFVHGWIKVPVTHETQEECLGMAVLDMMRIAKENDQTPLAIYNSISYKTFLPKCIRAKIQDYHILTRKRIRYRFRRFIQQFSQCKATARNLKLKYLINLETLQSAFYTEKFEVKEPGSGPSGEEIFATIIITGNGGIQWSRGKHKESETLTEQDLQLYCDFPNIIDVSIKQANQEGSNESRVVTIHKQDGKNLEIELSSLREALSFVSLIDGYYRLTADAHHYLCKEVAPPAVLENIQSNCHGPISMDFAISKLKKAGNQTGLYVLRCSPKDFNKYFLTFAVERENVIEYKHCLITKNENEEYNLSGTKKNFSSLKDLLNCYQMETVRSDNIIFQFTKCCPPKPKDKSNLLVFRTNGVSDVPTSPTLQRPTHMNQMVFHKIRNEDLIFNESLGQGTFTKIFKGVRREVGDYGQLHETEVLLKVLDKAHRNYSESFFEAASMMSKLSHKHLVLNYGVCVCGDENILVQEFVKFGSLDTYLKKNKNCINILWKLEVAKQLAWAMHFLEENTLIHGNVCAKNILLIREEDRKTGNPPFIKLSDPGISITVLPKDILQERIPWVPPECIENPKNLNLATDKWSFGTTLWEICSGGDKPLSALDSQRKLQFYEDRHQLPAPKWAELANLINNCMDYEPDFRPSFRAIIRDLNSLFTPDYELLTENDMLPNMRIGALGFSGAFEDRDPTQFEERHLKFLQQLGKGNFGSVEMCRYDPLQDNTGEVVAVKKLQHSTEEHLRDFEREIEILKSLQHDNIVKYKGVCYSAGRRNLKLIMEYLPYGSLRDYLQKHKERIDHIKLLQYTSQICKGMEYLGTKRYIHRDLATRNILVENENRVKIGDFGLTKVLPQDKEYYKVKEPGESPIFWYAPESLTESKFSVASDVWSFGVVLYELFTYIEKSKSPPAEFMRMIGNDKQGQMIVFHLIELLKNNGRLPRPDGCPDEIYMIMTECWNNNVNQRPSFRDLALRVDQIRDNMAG
Procedure, shortened: as §1

[4] = test system: non-small cell lung cancer with ROS fusion gene positive; settings: clinical application, Non-Patent Document 22; cited from earlier work

GI50 [1] [nM]	IC50 [2] [nM]	IC50 [3] [nM]	Structure (SMILES)	effectiveness for patients of non-small cell lung cancer with ROS fusion gene positive [4]
1.5	2.6	> 1000	COCCNC(=O)c1nc(N2CCC[C@H]2c2ccc(C)cc2)nc(Nc2ncc(C#N)s2)c1OC [Example 64, 6-[(5-Cyano-1,3-thiazol-2-yl)amino]-5-methoxy-N-(2-methoxyethyl)-2-[(2S)-2-(4-methylphenyl)pyrrolidin-1-yl]pyrimidine-4-carboxamide]	–
1.9	1.3	260	COc1c(Nc2ncc(C#N)s2)nc(N2CCC[C@H]2c2ccc(C)cc2)nc1-c1ccc(O)nc1 [Example 65, 2-({6-(6-Hydroxypyridin-3-yl)-5-methoxy-2-[(2S)-2-(4-methylphenyl)pyrrolidin-1-yl]pyrimidin-4-yl}amino)-1,3-thiazole-5-carbonitrile]	–
0.71	0.76	22	Cc1ccc([C@@H]2CCCN2c2cc(C(=O)N[C@H]3CC[C@H](O)CC3)c(C)c(Nc3ncc(C#N)s3)n2)cc1 [Example 68, 2-[(5-Cyano-1,3-thiazol-2-yl)amino]-N-(4-hydroxycyclohexyl)-3-methyl-6-[(2S)-2-(4-methylphenyl)pyrrolidin-1-yl]pyridine-4-carboxamide]	–

The next lines start with the molecule.

Structure (SMILES)	GI50 [1] [nM]	IC50 [2] [nM]	IC50 [3] [nM]	effectiveness for patients of non-small cell lung cancer with ROS fusion gene positive [4]
CCc1c(Nc2ncc(C#N)s2)nc(N2CCC[C@H]2c2ccc(C)cc2)nc1C(=O)NS(C)(=O)=O [Example 67, 6-[(5-Cyano-1,3-thiazol-2-yl)amino]-5-ethyl-2-[(2S)-2-(4-methylphenyl)pyrrolidin-1-yl]-N-(methylsulfonyl)pyrimidine-4-carboxamide]	2.1	1.5	370	–
Cc1ccc([C@@H]2CCCN2c2cc(-c3cnn(C)c3)cc(Nc3ncns3)n2)cc1 [Example 69, 6-[(2S)-2-(4-Methylphenyl)pyrrolidin-1-yl]-4-(1-methyl-1H-pyrazol-4-yl)-N-(1,2,4-thiadiazol-5-yl)pyridine-2-amine]	6.9	11	17	–
CCc1c(C)nc(N2CCC[C@H]2c2ccc(C)cc2)nc1Nc1ncc(C#N)s1 [Example 70, 2-({5-Ethyl-6-methyl-2-[(2S)-2-(4-methylphenyl)pyrrolidin-1-yl]pyrimidin-4-yl}amino)-1,3-thiazole-5-carbonitrile maleate]	1.7	2.9	> 1000	–
CC(=O)N1CCc2nc(N3CCC[C@H]3c3ccc(C)cc3)nc(Nc3ncc(C#N)s3)c2C1 [Example 71, 2-({6-Acetyl-2-[(2S)-2-(4-methylphenyl)pyrrolidin-1-yl]-5,6,7,8-tetrahydropyrido[4,3-d]pyrimidin-4-yl}amino)-1,3-thiazole-5-carbonitrile]	2	1.2	150	–
C[C@@H](Oc1cc(-c2cnn(C3CCNCC3)c2)cnc1N)c1c(Cl)ccc(F)c1Cl [crizotinib]	–	–	–	effective
